{"source": "patent US20040038855A1", "about": "(priority 1999, published 2004)", "key": {"[1]": {"tested_on": "micturition reflex, conscious male Sprague Dawley rats", "assay": "Continuous Slow Transvesicular Infusion (CSTI) rat model", "assay_type": "in vivo", "set-up": "key to Effect of MCH1 antagonist in the CSTI model: B = Produced an increase in bladder capacity in rats relative to baseline capacity", "conditions": "bladder capacity, intragastric", "protocol": "The effects of compounds on the micturition reflex were assessed in the “distension-induced rhythmic contraction” (DIRC), as described in previous publications (e.g. Maggi et al, 1987; Morikawa et al, 1992), and Continuous Slow Transvesicular Infusion (CSTI) models in rats. Male Sprague Dawley rats weighing approximately 300 g were used for the study. Rats were anaesthetized with pentobarbitone sodium (50 mg/kg, i.p). Through a median abdominal incision, bladder was exposed and a polyethylene cannula (PE 50) was introduced into the bladder through a small cut on the dome of the bladder and the cannula was secured with a purse string suture. The other end of the cannula was exteriorized subcutaneously at the dorsal neck area. Similarly, another cannula (PE 50) was introduced into the stomach through a paramedian abdominal incision with the free end exteriorized subcutaneously to the neck region. The surgical wounds were closed with silk 4-0 suture and the animal was allowed to recover with appropriate post surgical care. On the following day, the animal was placed in a rat restrainer. The open end of the bladder cannula was connected to a pressure transducer as well as infusion pump through a three-way stopcock. The bladder voiding cycles were initiated by continuous infusion of normal saline at the rate of 100 ul/min. The repetitive voiding contractions were recorded on a Power Lab on-line data acquisition software. After recording the basal voiding pattern for an hour, the test drug or vehicle was administered directly into stomach through the intragastric catheter and the voiding cycles were monitored for 5 hours. Micturition pressure and frequency were calculated before and after the treatment (at every 30 min interval) for each animal. Bladder capacity was calculated from the micturition frequency, based on the constant infusion of 100 ul/min. The effect of the test drug was expressed as a percentage of basal, pre-drug bladder capacity. WAY 100635 was used as positive control for comparison."}, "[2]": {"tested_on": "micturition reflex, anesthetized female Sprague Dawley rats", "assay": "Distension-induced rhythmic contraction (DIRC) model", "assay_type": "in vivo, rat", "set-up": "key: A = Produced a significant increase in contraction interval relative to pre-drug interval", "conditions": "contraction interval, i.v. or i.p.", "protocol": "The effects of compounds on the micturition reflex were assessed in the “distension-induced rhythmic contraction” (DIRC), as described in previous publications (e.g. Maggi et al, 1987; Morikawa et al, 1992), and Continuous Slow Transvesicular Infusion (CSTI) models in rats.\nFemale Sprague Dawley rats weighing approximately 300 g were anesthetized with subcutaneous urethane (1.2 g/kg). The trachea was cannulated with PE240 tubing to provide a clear airway throughout the experiment. A midline abdominal incision was made and the left and right ureters were isolated. The ureters were ligated distally (to prevent escape of fluids from the bladder) and cannulated proximally with PE10 tubing. The incision was closed using 4-0 silk sutures, leaving the PE10 lines routed to the exterior for the elimination of urine. The bladder was canulated via the transurethral route using PE50 tubing inserted 2.5 cm beyond the urethral opening. This cannula was secured to the tail using tape and connected to a pressure transducer. To prevent leakage from the bladder, the cannula was tied tightly to the exterior urethral opening using 4-0 silk.\nTo initiate the micturition reflex, the bladder was first emptied by applying pressure to the lower abdomen, and then filled with normal saline in […] (maximum 2 ml) until spontaneous bladder contractions occurred (typically 20-40 mmHg at a rate of one contraction every 2 to 3 minutes. Once a regular rhythm was established, vehicle (saline) or Test Compounds were administered i.v. or i.p. to explore their effects on bladder activity. The 5-HT1A antagonist WAY-100635 was given as a positive control. Data were expressed as contraction interval (in seconds) before drug application (basal), or after the application of vehicle or test article."}, "[3]": {"target": "T1, rat MCH1 receptor (Rattus norvegicus, UniProt P97639)", "T1 construct": "expressed in transfected cells", "T1 sequence (P97639 whole entry)": "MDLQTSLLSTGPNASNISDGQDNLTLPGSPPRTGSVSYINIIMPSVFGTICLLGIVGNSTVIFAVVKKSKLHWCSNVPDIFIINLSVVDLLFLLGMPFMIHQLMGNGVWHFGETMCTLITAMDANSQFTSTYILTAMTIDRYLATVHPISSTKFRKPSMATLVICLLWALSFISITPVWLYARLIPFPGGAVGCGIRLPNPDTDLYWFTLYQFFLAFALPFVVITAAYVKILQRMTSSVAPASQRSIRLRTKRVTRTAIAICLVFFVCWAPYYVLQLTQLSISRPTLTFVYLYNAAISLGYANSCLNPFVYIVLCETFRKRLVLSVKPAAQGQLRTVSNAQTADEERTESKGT", "assay": "Binding affinity (Ki) at the rat MCH1 receptor", "conditions": "Examples 142-153; read-out: Ki (nM) rMCH1"}, "[4]": {"target": "T2, MCH1 receptor binding sites in the rat CNS (Rattus norvegicus, UniProt P97639)", "T2 construct": "from tissue; host or cells: coronal brain and spinal cord sections of male Sprague-Dawley rats", "T2 sequence (P97639 whole entry)": "as above", "assay": "Receptor autoradiography with [3H]Compound 10 on rat brain and spinal cord sections", "set-up": "key to Density of MCH1 receptor binding sites: absent (−); weak (+); moderate (++); heavy (+++); intense (++++)", "conditions": "for Density of MCH1 receptor binding sites: 0.1 nM [3H] Compound 10, 1 μM prazosin, 100 μM dopamine, rat CNS", "protocol": "Male Sprague-Dawley rats (Charles Rivers, Rochester, N.Y.) were euthanized using CO2 and decapitated and their brains rapidly removed and frozen on crushed dry ice. Coronal sections were cut at 20 μm using a cryostat and thaw-mounted onto gelatin-coated slides then stored at −20° C. until use.\nDopamine, prazosin, and phenanthroline were obtained from Sigma (St. Louis, Mo.). Phenylmethylsulfonyl Fluoride (PMSF) was from Calbiochem (La Jolla, Calif.). See also Chemical Synthetic Methods described hereinafter.\nTissue sections were allowed to equilibrate to room temperature for one hour. Sections were incubated at 25° C. for 1.5 hours in 50 mM Tris-HCl buffer, pH 7.4, containing 10 mM MgCl2, 0.16 mM PMSF, 0.3 mM phenanthroline, 0.2% bovine serum albumin (Boehringer Mannheim, Indianapolis, Ind.), 100 μM dopamine, 1 μM prazosin, […] Following incubation the sections were washed twice for 5 minutes each in 4° C. 50 mM Tris-buffer, pH 7.4, then rapidly dipped in ice-cold distilled water to remove the salts. Tissues were dried under a stream of cold air and apposed together with ^3H-plastic standard scales, to Hyperfilm-^3H (Amersham, Piscataway, N.J.) for 6 weeks. Films were developed using a Kodak developer-D19 and Rapid fixer (Kodak, Rochester, N.Y.). […]"}, "[5]": {"target": "human MCH1 receptor (Homo sapiens, UniProt Q99705)", "sequence (Q99705 whole entry)": "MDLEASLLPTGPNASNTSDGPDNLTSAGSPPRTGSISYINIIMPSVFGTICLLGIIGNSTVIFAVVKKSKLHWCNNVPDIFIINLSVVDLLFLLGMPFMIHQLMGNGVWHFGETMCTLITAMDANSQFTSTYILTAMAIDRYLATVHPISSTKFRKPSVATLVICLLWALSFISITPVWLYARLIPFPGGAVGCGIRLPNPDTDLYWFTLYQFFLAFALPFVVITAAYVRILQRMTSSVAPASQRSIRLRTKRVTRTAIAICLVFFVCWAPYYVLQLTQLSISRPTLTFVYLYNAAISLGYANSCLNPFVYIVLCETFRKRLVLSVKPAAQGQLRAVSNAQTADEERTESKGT", "assay": "Saturation and competition binding of [3H]Compound 10, membranes of Cos-7 cells transfected with MCH1", "set-up": "expressed in transfected cells; host or cells: COS-7", "protocol": "Saturation equilibrium binding of [3H]Compound 10 to the human MCH1 receptor. Membrane preparations from Cos-7 cells transfected with MCH1 were incubated with varying concentrations of [3H]Compound 10 (SA: 56 Ci/mmol) at room temperature for 90 min, in a volume of 0.250 ml. The reaction was terminated by filtration in GF/C filters, and the radioactivity determined by scintillation counting. Non-specific binding was defined as the amount of radioactivity retained in the filter after incubating the reaction mixture in the presence of unlabeled Compound 10 ([…]).\nCompetition binding of [3H]Compound 10 to the human MCH1 receptor. […] The reaction was terminated by filtration in GF/C filters and the radioactivity bound to the membrane was determined by scintillation counting.\n[3H]Compound 10 was tested for its ability to bind to membrane preparations of cells expressing the human MCH1 receptor."}}}
{"molecule": "Cc1onc(-c2c(Cl)cccc2Cl)c1C(=O)NCCCCCN1CCC(c2cccc(NC(=O)C(C)C)c2)CC1", "note": "[Example 149]", "values": [{"measurement": "Effect of MCH1 antagonist in the CSTI model", "setting": "[1]", "value": "B"}, {"measurement": "Effect of MCH1 antagonist in the DIRC model", "setting": "[2]", "value": "A"}, {"measurement": "Ki", "setting": "[3]", "value": 7.1, "unit": "nM"}]}
{"molecule": "CC(=O)c1cccc(O[C@H](CCN2CCC(c3cccc(NC(=O)C(C)C)c3)CC2)c2ccccc2)c1", "note": "[Example 151]", "values": [{"measurement": "Effect of MCH1 antagonist in the CSTI model", "setting": "[1]", "value": "B"}, {"measurement": "Effect of MCH1 antagonist in the DIRC model", "setting": "[2]", "value": "A"}, {"measurement": "Ki", "setting": "[3]", "value": 3.8, "unit": "nM"}]}
{"molecule": "[3H]C1CN(CCCNC(=O)N2C(=O)NC(COC)=C(C(=O)OC)[C@@H]2c2ccc(F)c(F)c2)CCC1([3H])c1cccc(NC(C)=O)c1", "note": "(stereo partly drawn) [[3H]Compound 10, TRITIATED METHYL (4S)-3-{[(3-{4-[3-(ACETYLAMINO)PHENYL]-1-PIPERIDINYL}PROPYL)AMINO]CARBONYL}-4-(3,4-DIFLUOROPHENYL)-6-(METHOXYMETHYL)-2-OXO-1,2,3,4-TETRAHYDRO-5-PYRIMIDINECARBOXYLATE]", "values": [{"measurement": "specific binding", "setting": "[4]; 0.1 nM with 100 μM dopamine and 1 μM prazosin, nonspecific: 10 μM unlabeled Compound 10", "value": "approximately 95%"}, {"measurement": "Density of MCH1 receptor binding sites", "setting": "[4]; Amygdala: Anterior cortical n.", "value": "+"}, {"measurement": "Density of MCH1 receptor binding sites", "setting": "[4]; Amygdala: Basolateral amygdaloid n.", "value": "+"}, {"measurement": "Density of MCH1 receptor binding sites", "setting": "[4]; Amygdala: Bed n. Of the stria terminalis", "value": "++"}, {"measurement": "Density of MCH1 receptor binding sites", "setting": "[4]; Amygdala: Central amygdaloid n.", "value": "+"}, {"measurement": "Density of MCH1 receptor binding sites", "setting": "[4]; Basal Ganglia: Accumbens n., core", "value": "+++"}, {"measurement": "Density of MCH1 receptor binding sites", "setting": "[4]; Basal Ganglia: Accumbens n., shell", "value": "++++"}, {"measurement": "Density of MCH1 receptor binding sites", "setting": "[4]; Basal Ganglia: Caudate-putamen", "value": "+++"}, {"measurement": "Density of MCH1 receptor binding sites", "setting": "[4]; Basal Ganglia: Globus pallidus", "value": "−"}, {"measurement": "Density of MCH1 receptor binding sites", "setting": "[4]; Basal Ganglia: Medial septal n.", "value": "+"}, {"measurement": "Density of MCH1 receptor binding sites", "setting": "[4]; Basal Ganglia: Septohippocampal n.", "value": "+"}, {"measurement": "Density of MCH1 receptor binding sites", "setting": "[4]; Cerebellum", "value": "−"}, {"measurement": "Density of MCH1 receptor binding sites", "setting": "[4]; Diencephalon, Thalamus: Anterodorsal n.", "value": "+"}, {"measurement": "Density of MCH1 receptor binding sites", "setting": "[4]; Diencephalon, Thalamus: Centromedial n.", "value": "+"}, {"measurement": "Density of MCH1 receptor binding sites", "setting": "[4]; Diencephalon, Thalamus: Mediodorsal n.", "value": "−"}, {"measurement": "Density of MCH1 receptor binding sites", "setting": "[4]; Diencephalon, Thalamus: Paraventricular n.", "value": "+"}, {"measurement": "Density of MCH1 receptor binding sites", "setting": "[4]; Diencephalon, Thalamus: Reticular n.", "value": "+"}, {"measurement": "Density of MCH1 receptor binding sites", "setting": "[4]; Diencephalon: Hypothalamus", "value": "+"}, {"measurement": "Density of MCH1 receptor binding sites", "setting": "[4]; Hippocampal formation: CA1", "value": "++"}, {"measurement": "Density of MCH1 receptor binding sites", "setting": "[4]; Hippocampal formation: CA2", "value": "++"}, {"measurement": "Density of MCH1 receptor binding sites", "setting": "[4]; Hippocampal formation: CA3", "value": "++"}, {"measurement": "Density of MCH1 receptor binding sites", "setting": "[4]; Hippocampal formation: Pre/parasubiculum", "value": "++"}, {"measurement": "Density of MCH1 receptor binding sites", "setting": "[4]; Locus coeruleus (listed under Mesencephalon)", "value": "++"}, {"measurement": "Density of MCH1 receptor binding sites", "setting": "[4]; Mesencephalon: Caudal linear raphe n.", "value": "+"}, {"measurement": "Density of MCH1 receptor binding sites", "setting": "[4]; Mesencephalon: Interpeduncular n.", "value": "++"}, {"measurement": "Density of MCH1 receptor binding sites", "setting": "[4]; Mesencephalon: Periaqueductal gray", "value": "+"}, {"measurement": "Density of MCH1 receptor binding sites", "setting": "[4]; Mesencephalon: Pontine n.", "value": "+"}, {"measurement": "Density of MCH1 receptor binding sites", "setting": "[4]; Mesencephalon: Substantia nigra", "value": "+"}, {"measurement": "Density of MCH1 receptor binding sites", "setting": "[4]; Mesencephalon: Superior colliculus", "value": "++"}, {"measurement": "Density of MCH1 receptor binding sites", "setting": "[4]; Olfactory System: Anterior olfactory n.", "value": "+"}, {"measurement": "Density of MCH1 receptor binding sites", "setting": "[4]; Olfactory System: Islands of Calleja, major", "value": "+++"}, {"measurement": "Density of MCH1 receptor binding sites", "setting": "[4]; Olfactory System: Olfactory tubercle", "value": "+++"}, {"measurement": "Density of MCH1 receptor binding sites", "setting": "[4]; Spinal cord: Dorsal horn", "value": "+"}, {"measurement": "Density of MCH1 receptor binding sites", "setting": "[4]; Spinal cord: Ventral horn", "value": "+"}, {"measurement": "Density of MCH1 receptor binding sites", "setting": "[4]; Telencephalon: Claustrum", "value": "++"}, {"measurement": "Density of MCH1 receptor binding sites", "setting": "[4]; Telencephalon: Dorsal endopiriform n.", "value": "+"}, {"measurement": "maximum number of binding sites (Bmax)", "setting": "[5]", "value": 870, "unit": "fmol/mg protein"}]}
